Measurements published in patent US11384109B2, “Method for separating phenolic acid glucoside compounds from Diaphragma juglandis Fructu” (Jiangnan University, priority 2020, dated 2022).
Marks after values point to notes of the source that are not given here.

How the values were obtained:
[1] = test system: aging model mice induced by D-galactose; assay: Antioxidant effects in subacute aging model mice induced by D-galactose (serum SOD by ELISA, liver MDA by colorimetry); format: in vivo, ICR mice; details: 500 mg/kg by gavage for 6 weeks; for Liver MDA / Serum SOD: 150 mg/kg D-galactose s.c., 24 hours after last administration, x ± s, 10 mice per group; for Liver MDA: 10% liver homogenate; for liver MDA content compared with the model group / serum SOD activity compared with the model group: result in words, One-way ANOVA Dunnett test
Source text: 1.1 Animals: ICR mice, 6 weeks old, 20-25 g, SPF grade, purchased from Shanghai Slack Experimental Animal Co., Ltd.
1.2 Reagents: D-galactose, purchased from Sigma, USA; malondialdehyde (MDA) kit, purchased from Nanjing Jiancheng Bioengineering Institute; superoxide dismutase (SOD) kit, purchased from Shanghai Aisalai Eliza Biotechnology Co., Ltd.
2.1 Animal grouping and administration: after one week of adaptive feeding, mice were randomly divided into 5 groups, 10 mice each group. The administration group was gavaged with Compounds 1-3, 500 mg/kg per compound. The blank group and aging model group were gavaged with equal volume of normal saline for 6 weeks. At the same time, 150 mg/kg D-galactose was injected subcutaneously into the aging model group and the administration group respectively to establish a subacute aging model of mice. The blank control group was injected with equal volume of normal saline for 6 weeks.
2.2 Sample preparation and index determination: 24 hours after the last administration, blood was collected from the eyeballs of mice; after dislocation for execution, the liver was removed, cleaned and ground at low temperature to prepare 10% tissue homogenate, which was centrifuged at 3500 rpm and 4° C. for 10 min, and supernatant was taken and stored at −20° C. The content of MDA in the liver tissue was determined by colorimetry, and the activity of SOD in serum was determined by ELISA.
2.3 Statistical analysis: the results were expressed as x±s. The results were analyzed by One-way ANOVA Dunnett test using SPSS 20 software.

[2] = Solubility description of the isolated compounds

| Compound | Liver MDA [1] | Serum SOD [1] | liver MDA content compared with the model group [1] | serum SOD activity compared with the model group [1] | solubility in chloroform [2] | solubility in water, ethanol and the like [2] |
| --- | --- | --- | --- | --- | --- | --- |
| COc1ccc(O)c(O[C@@H]2O[C@H](CO)[C@@H](O)[C@H](O)[C@H]2O)c1 [Compound 1, 2-hydroxyl-5-methoxylphenyl-O-β-D-glucopyranoside] | 0.211 ± 0.019^a nmol/mg tissue | 94.90 ± 8.07^a U/mL | significantly (P<0.05) decreased | significantly (P<0.05) increased | insoluble | soluble |
| 2,6-dihydroxynaphthyl-O-β-D-glucopyranoside [Compound 3] | 0.183 ± 0.051^a nmol/mg tissue | 103.44 ± 15.75^a U/mL | significantly (P<0.05) lower than that in the model group | significantly (P<0.05) higher than that in the model group | insoluble | soluble |
| OC[C@H]1O[C@@H](Oc2ccc3cc(O)ccc3c2O[C@@H]2O[C@H](CO)[C@@H](O)[C@H](O)[C@H]2O)[C@H](O)[C@@H](O)[C@@H]1O [Compound 2, 6-hydroxylnaphthyl-1,2-di-O-β-D-glucopyranoside] | 0.198 ± 0.037^a nmol/mg tissue | 97.06 ± 10.18^a U/mL | significantly (P<0.05) decreased | significantly (P<0.05) increased |  |  |
